Data taken from patent publication US5053333A, “Protease” (M & D Research Co., Ltd., priority 1988, dated 1991).
Like-named read-outs stand apart in the source and are kept apart here. Peptide text beside a SMILES is read from it. * marks the point of attachment. AMC = Cc1cc(=O)oc2cc(N*)ccc12; Boc = CC(C)(C)OC(=O)*; OBn = c1ccc(CO*)cc1

Legend:
[1] = tested on: Benz-I (protease specific for basic amino acid residue); test: Substrate specificity of Benz-I with fluorescent substrates; assay type: biochemical, Kluyveromyces lactis IFO 1903; settings: activity for Boc-Gln-Arg-Arg-MCA being 100; standard conditions
Experimental: (§1) 1 ml of a reaction mixture containing 50 μmol of Tris-hydrochloride buffer (pH 7.0), 10 mg of Lubrol PX, 0.5 μmol of calcium chloride, 0.1 μmol of Boc-Gln-Arg-Arg-MCA, wherein Boc represents a t-butyloxycarbonyl group while MCA represents 4-methylcoumarin-7-amide and the enzyme is allowed to react at 30° C. The fluorescence (excition wavelength: 380 nm, emmision wavelength: 460 nm) originating from the 7-amino-4-methylcoumarin (AMC) thus formed is monitored with the lapse of time. The amount of the enzyme activity capable of catalyzing the release of 1 n mol of AMC per one minute is defined as 1 U. The specific activity is represented by U per mg of protein. The amount of the protein is determined by measurement the absorbance at […] as E^1% of protein being assumed to be 10.
(§2) The activities of Benz-I and Benz-II were determined under standard conditions with the use of various fluorescent substrates. The activity for each substrate was expressed by relative activity with the activity for Boc-Gln-Arg-Arg-MCA being 100.

[2] = tested on: Benz-II (protease specific for basic amino acid residue); test: Substrate specificity of Benz-II with fluorescent substrates; assay type: biochemical, Kluyveromyces lactis IFO 1903; settings: activity for Boc-Gln-Arg-Arg-MCA being 100; standard conditions
Experimental: as §1, §2

[3] = tested on: protease specific for basic amino acid residue from Sporobolomyces odrus IFO 1597; test: Substrate specificity of Sporobolomyces protease with fluorescent substrates; assay type: biochemical; settings: activity for Boc-Gln-Arg-Arg-MCA being 100; standard conditions
Experimental: A reaction mixture containing 50 μmol of tris hydrochloride buffer solution (pH 7.0), 10 mg of Lubrol PX, 0.5 μmol of calcium chloride, 0.1 μmol of Boc-Gln-Arg-Arg-MCA, wherein Boc represents a t-butyloxycalbonyl group while MCA represents 4-methylcoumarin-7-amide and the enzyme is allowed to react at 30° C. The fluorescence (excition wavelength: 380 nm, emission wavelength: 460 nm) originating from the 7-amino-4-methylcoumarin (AMC) thus formed is monitored. The amount of the enzyme capable of catalyzing the release of 1 nmol of AMC per one minute is defined as 1 U.
The activities of the enzyme for various fluorescent substrates were determined under standard reaction conditions.

[4] = tested on: Benz-I (protease specific for basic amino acid residue); assay type: biochemical, Kluyveromyces lactis IFO 1903
Experimental: Benz-I was incubated in the presence of 10 mM of EDTA at 4° C. for one hour. When the enzyme was completely inactivated, the culture was dialyzed against 10 mM tris hydrochloride buffer solution (pH 7.0) containing 0.2% of Lubrol PX to thereby completely remove the EDTA. The enzyme mixture thus dialyzed was examined with respect to the recovery of the activity in reaction mixtures containing 0.5 mM of various metal ions.

[5] = tested on: protease specific for basic amino acid residue from Sporobolomyces odrus IFO 1597; assay type: biochemical
Experimental: The enzyme was treated in the standard reaction mixture containing 1 mM of EDTA and free from any substrate at 25° C. for 30 minutes. Various metal ions were added thereto each in such an amount as to give a concentration of 1.5 mM and the mixture was incubated at 30° C. for five minutes. Then the activity of each case was determined.

protease B = test: Activation and inhibition of protease B (stated properties); assay type: biochemical, Kluyveromyces lactis IFO 1903
protease A = test: Activation and inhibition of protease A (stated properties); assay type: biochemical, Sporobolomyces odrus IFO 1597
Experimental: The enzymes was incubated in the absence of any substrate in standard reaction mixtures containing various inhibitors at 25° C. for 30 minutes. After adding the substrate, the residual activity of each enzyme was determined.
The enzyme was reacted in the standard reaction mixture while varying the type and concentration of surfactants.
The activity of the enzyme was determined in the presence of 0.1% of EDTA while varying the concentration of CaCl2. […] The concentration of free CaCl2 was calculated from the apparent dissociation constant (K1) of EDTA for CaCl2 (log K1 =7.3).

[6] = tested on: Benz-I (protease specific for basic amino acid residue); test: Behavior of Benz-I against various inhibitors (residual activity); assay type: biochemical, Kluyveromyces lactis IFO 1903; settings: 25° C. 30 minutes, control lot = 100
[7] = tested on: Benz-II (protease specific for basic amino acid residue); test: Behavior of Benz-II against various inhibitors (residual activity); assay type: biochemical, Kluyveromyces lactis IFO 1903; settings: 25° C. 30 minutes, control lot = 100
[8] = tested on: protease specific for basic amino acid residue from Sporobolomyces odrus IFO 1597; test: Behavior of Sporobolomyces protease against various inhibitors (residual activity); assay type: biochemical
[9] = Benz-I treated with 10 mM EDTA, dialyzed, reaction mixture with 0.5 mM metal ion, control lot = 100
[10] = EDTA treatment +, reaction system EDTA (1 mM) +, metal 1.5 mM, 30° C. five minutes
[11] = Ca2+ +, inhibitor 1 mM, 25° C. 30 minutes

## Cc1cc(=O)oc2cc(NC(=O)[C@H](CCCNC(=N)N)NC(=O)[C@@H]3CCCN3C(=O)CNC(=O)[C@H](C)NC(=O)OC(C)(C)C)ccc12 [Boc--Ala--Gly--Pro--Arg--MCA] (Boc-AGPR-{AMC})
[1]
  Relative activity of Benz-I for substrate: 1.9
[2]
  Relative activity of Benz-II for substrate: 1.6
[3]
  Activity (relative) for substrate: 1%

## Cc1cc(=O)oc2cc(NC(=O)[C@H](CCCNC(=N)N)NC(=O)[C@@H]3CCCN3C(=O)[C@H](CC(=O)OCc3ccccc3)NC(=O)OC(C)(C)C)ccc12 [Boc--Asp(OBzl)--Pro--Arg--MCA] (Boc-Asp(OBn)-Pro-Arg-{AMC})
[1]
  Relative activity of Benz-I for substrate: 12.3
[2]
  Relative activity of Benz-II for substrate: 7.8
[3]
  Activity (relative) for substrate: 5%

## Cc1cc(=O)oc2cc(NC(=O)[C@H](CCCNC(=N)N)NC(=O)[C@H](CCCNC(=N)N)NC(=O)[C@H](CCC(N)=O)NC(=O)OC(C)(C)C)ccc12 [Boc--Gln--Arg--Arg--MCA, Boc-Gln-Arg-Arg-MCA] (Boc-Gln-Arg-Arg-{AMC})
[1]
  Relative activity of Benz-I for substrate: 100
[2]
  Relative activity of Benz-II for substrate: 100
[3]
  Activity (relative) for substrate: 100%

## Cc1cc(=O)oc2cc(NC(=O)[C@H](CCCCN)NC(=O)[C@H](CCCCN)NC(=O)[C@H](CCC(=O)O)NC(=O)OC(C)(C)C)ccc12 [Boc--Glu--Lys--Lys--MCA] (Boc-Glu-Lys-Lys-{AMC})
[1]
  Relative activity of Benz-I for substrate: 1.3
[2]
  Relative activity of Benz-II for substrate: 0.9
[3]
  Activity (relative) for substrate: 0%

## Cc1cc(=O)oc2cc(NC(=O)[C@H](CCCNC(=N)N)NC(=O)[C@H](CCCNC(=N)N)NC(=O)CNC(=O)OC(C)(C)C)ccc12 [Boc--Gly--Arg--Arg--MCA]
[1]
  Relative activity of Benz-I for substrate: 19.8
[2]
  Relative activity of Benz-II for substrate: 19.7
[3]
  Activity (relative) for substrate: 32%

## Cc1cc(=O)oc2cc(NC(=O)[C@H](CCCNC(=N)N)NC(=O)[C@H](CCCCN)NC(=O)CNC(=O)OC(C)(C)C)ccc12 [Boc--Gly--Lys--Arg--MCA] (Boc-Gly-Lys-Arg-{AMC})
[1]
  Relative activity of Benz-I for substrate: 120
[2]
  Relative activity of Benz-II for substrate: 123
[3]
  Activity (relative) for substrate: 59%

## Cc1cc(=O)oc2cc(NC(=O)[C@H](CCCNC(=N)N)NC(=O)[C@H](CCCNC(=N)N)NC(=O)[C@H](CC(C)C)NC(=O)OC(C)(C)C)ccc12 [Boc--Leu--Arg--Arg--MCA] (Boc-Leu-Arg-Arg-{AMC})
[1]
  Relative activity of Benz-I for substrate: 159
[2]
  Relative activity of Benz-II for substrate: 156
[3]
  Activity (relative) for substrate: 115%

## Cc1cc(=O)oc2cc(NC(=O)[C@H](CCCNC(=N)N)NC(=O)[C@H](CCCCN)NC(=O)[C@H](CC(C)C)NC(=O)OC(C)(C)C)ccc12 [Boc--Leu--Lys--Arg--MCA] (Boc-Leu-Lys-Arg-{AMC})
[1]
  Relative activity of Benz-I for substrate: 123
[2]
  Relative activity of Benz-II for substrate: 127
[3]
  Activity (relative) for substrate: 75%

## Cc1cc(=O)oc2cc(NC(=O)[C@H](CCCNC(=N)N)NC(=O)[C@@H](NC(=O)[C@H](CO)NC(=O)[C@H](CC(C)C)NC(=O)OC(C)(C)C)[C@@H](C)O)ccc12 [Boc--Leu--Ser--Thr--Arg--MCA] (Boc-LSTR-{AMC})
[1]
  Relative activity of Benz-I for substrate: 127
[2]
  Relative activity of Benz-II for substrate: 97.0
[3]
  Activity (relative) for substrate: 2%

## Cc1cc(=O)oc2cc(NC(=O)[C@H](CCCNC(=N)N)NC(=O)[C@@H](NC(=O)[C@H](CC(C)C)NC(=O)OC(C)(C)C)[C@@H](C)O)ccc12 [Boc--Leu--Thr--Arg--MCA] (Boc-Leu-Thr-Arg-{AMC})
[1]
  Relative activity of Benz-I for substrate: 20.0
[2]
  Relative activity of Benz-II for substrate: 13.9
[3]
  Activity (relative) for substrate: 3%

## Cc1cc(=O)oc2cc(NC(=O)[C@H](CCCNC(=N)N)NC(=O)[C@@H]3CCCN3C(=O)[C@@H](NC(=O)OC(C)(C)C)C(C)C)ccc12 [Boc--Val--Pro--Arg--MCA] (Boc-Val-Pro-Arg-{AMC})
[1]
  Relative activity of Benz-I for substrate: 107
[2]
  Relative activity of Benz-II for substrate: 88.0
[3]
  Activity (relative) for substrate: 26%

## [Ca+2].[Cl-].[Cl-] [calcium chloride]
[4]; [9]
  Relative activity: 93.1%
[5]; [10]
  Relative activity: 107%
Protease B; statement in words
  activation of protease B: activated
Protease A; statement in words
  activation of protease A: best activated

## [Cl][Co][Cl] [cobalt chloride]
[4]; [9]
  Relative activity: 21.1%
[5]; [10]
  Relative activity: 57%

## O=S(=O)([O-])[O-].[Cu+2] [copper sulfate]
[6]; inhibitor 1 mM
  Residual activity of Benz-I: 0.2
[7]; inhibitor 1 mM
  Residual activity of Benz-II: 0.6
[8]; [11]
  relative activity (residual): 2%
Protease B; statement in words
  inhibition of protease B: inhibited
Protease A; statement in words
  inhibition of protease A: inhibited

## O=C(O)CN(CCOCCOCCN(CC(=O)O)CC(=O)O)CC(=O)O [ethylene glycol bis(2-aminoethyl ether)tetraacetic acid]
[6]; inhibitor 1 mM
  Residual activity of Benz-I: 53
[6]; inhibitor 5 mM
  Residual activity of Benz-I: 12
[7]; inhibitor 1 mM
  Residual activity of Benz-II: 43
[7]; inhibitor 5 mM
  Residual activity of Benz-II: 12
[8]; Ca2+ --, inhibitor 1 mM, 25° C. 30 minutes
  relative activity (residual): 10%
Protease B; statement in words
  inhibition of protease B: inhibited
Protease A; statement in words
  inhibition of protease A: inhibited

## O=C(O)CN(CCN(CC(=O)O)CC(=O)O)CC(=O)O [ethylenediaminetetraacetic acid]
[4]
  Relative activity: 0.36%
[4]; 10000 µM
  Relative activity: 0.09%
[8]; pH 7, 30 min, 1000 µM
  relative activity (residual): 2%
[5]
  Relative activity: 3%
[5]; pH 7, 1000 µM
  Relative activity: 0%
Protease B
  inhibition of protease B: inhibited
Protease A
  inhibition of protease A: inhibited

## [Cl-].[Cl-].[Mg+2] [magnesium chloride]
[4]; [9]
  Relative activity: 43.6%
[5]; [10]
  Relative activity: 12%

## [Cl][Mn][Cl] [manganese chloride]
[4]; [9]
  Relative activity: 33.9%
[5]; [10]
  Relative activity: 53%

## [Cl][Hg][Cl] [mercury chloride]
[6]; inhibitor 1 mM
  Residual activity of Benz-I: 0
[7]; inhibitor 1 mM
  Residual activity of Benz-II: 0
[8]; [11]
  relative activity (residual): 0%
Protease B; statement in words
  inhibition of protease B: inhibited
Protease A; statement in words
  inhibition of protease A: inhibited

## [Cl][Ni][Cl] [nickel chloride]
[4]; [9]
  Relative activity: 16.1%
[5]; [10]
  Relative activity: 58%

## N=C(N)c1ccc(CS(=O)(=O)F)cc1 [p-amidino-PMSF, p-amidinophenylmethanesulfonyl fluoride]
[6]; inhibitor 1 mM
  Residual activity of Benz-I: 0
[7]; inhibitor 1 mM
  Residual activity of Benz-II: 0
[8]; [11]
  relative activity (residual): 10%
Protease B; statement in words
  inhibition of protease B: inhibited
Protease A; statement in words
  inhibition of protease A: inhibited

## O=C(O)c1cc[c]([Hg][Cl])cc1 [p-chloromercuribenzoic acid]
[6]; inhibitor 50 μM
  Residual activity of Benz-I: 1
[7]; inhibitor 50 μM
  Residual activity of Benz-II: 3
[8]; Ca2+ +, inhibitor 50 μM, 25° C. 30 minutes
  relative activity (residual): 36%
Protease B; statement in words
  inhibition of protease B: inhibited
Protease A; statement in words
  inhibition of protease A: inhibited

## [Cl-].[Cl-].[Zn+2] [zinc chloride]
[6]; inhibitor 1 mM
  Residual activity of Benz-I: 7
[7]; inhibitor 1 mM
  Residual activity of Benz-II: 7
[8]; [11]
  relative activity (residual): 1%
Protease B; statement in words
  inhibition of protease B: inhibited
Protease A; statement in words
  inhibition of protease A: inhibited

## Triton X-100
Protease B; statement in words
  activation of protease B: activated
Protease A; statement in words
  activation of protease A: activated
